From patent US8846671B2, “Heterocyclic alkynyl benzene compounds and medical compositions and uses thereof” (Guangzhou Institute of Biomedicine and Health, Chinese …, priority 2010, dated 2014)
Values joined by “and” are separate entries in the source; they are usually repeats but may differ in a detail not shown here. Equal entries are not always repeated. Structures can show the parent of a compound that is named as a salt. Where two headings read alike, the source gives them in different places.

Columns and labels:
[1] = test system: K562 (human chronic myelogenous leukemia cell line); assay: tumor cell proliferation, MTT or CCK8 assay, 72 h incubation; type: cell-based; conditions: K562, 72 h, read-out: IC50 on tumor cell proliferation, K562
Experimental: (§1) The heterocyclic alkynyl benzene compounds at different concentrations (1×10^−10˜1×10^−5M) were incubated for 72 hours individually applied to 6 cell lines K562 (human CML cell line), MOLT-4 (human ALL cell line), U937 (human CML cell line), MEG-01 (human CML cell line), L78 (human lung cancer cell line), Ba/F3-T315I (mice Pro-B cells transformed with Bcr-AblT315I and STI57′-resistant cell line). After incubation for 72 hrs, cell proliferation was then determined by MTT assay or CCK8 assay, and 4 hr incubation is further conducted, the absorbance at 570 nm (CCK8, 450 nm, 650 nm) was measured using enzyme Microplate Reader. […] Based on the inhibition potency of the heterocyclic alkynyl benzene compounds on the cell proliferation, IC50 values were calculated and summarized in the Table 1 and Table 2 (The compounds used were synthesized by Examples 1-40, and the compounds are marked with Drug No. series in Table 1).

[2] = test system: MOLT-4 (Human acute lymphoblastic leukemia cell line); assay: as above; type: cell-based; conditions: MOLT-4, 72 h, read-out: IC50 on tumor cell proliferation, MOLT-4
Experimental: as §1

[3] = test system: MEG-01 (Human megakaryoblastic leukaemia cell line); assay: as above; type: cell-based; conditions: MEG-01, 72 h, read-out: IC50 on tumor cell proliferation, MEG-01
Experimental: as §1

[4] = test system: K562R cells (imatinib-resistant cell line); assay: as above; type: cell-based; conditions: Homo sapiens, K-562R, read-out: IC50 on tumor cell proliferation, K562R cells
[5] = target: BAF3-T315I cells (Ba/F3 cell line stably expressing BCR/ABL T315I) (Homo sapiens, UniProt P00519, T315I, cells depend on it); assay: as above; type: cell-based, mice
Experimental: The heterocyclic alkynyl benzene compounds at different concentrations (1×10^−10˜1×10^−5M) were incubated for 72 hours individually applied to 6 cell lines K562 (human CML cell line), MOLT-4 (human ALL cell line), U937 (human CML cell line), MEG-01 (human CML cell line), L78 (human lung cancer cell line), Ba/F3-T315I (mice Pro-B cells transformed with Bcr-AblT315I and STI57′-resistant cell line). After incubation for 72 hrs, cell proliferation was then determined by MTT assay or CCK8 assay, and 4 hr incubation is further conducted, the absorbance at 570 nm (CCK8, 450 nm, 650 nm) was measured using enzyme Microplate Reader.

[6] = test system: U937 Cell line; assay: as above; type: cell-based; conditions: Homo sapiens, read-out: IC50 on tumor cell proliferation, U937
Experimental: as §1

[7] = test system: K562 cells (human CML cell line expressing native Bcr-Abl); assay: Xenograft model of K562 in nude mice, oral dosing
Experimental: Tumor volume and body weight were monitored once every 2 days (In each group, the tumor volume and body weight at beginning of the day were recorded). Tumor volume was calculated as […]*a*b*b.L×W2/2 (a and b are the length and width of the tumor, respectively). […] The results were shown in Drawings as FIGS. 1, 2, 3, 4, 5, 6, 7 and 8.

[8] = Pharmacokinetics and bioavailability in rats; type: in vivo; conditions: SD rats; corresponding pharmaceutical acceptable salt forms
Experimental: Pharmacokinetics and bioavailability in rats. […] The blood samples were collected at the proper time points after administration, add heparin-anticoagulant, and the supernatants of the blood samples were collected (3000 rpm, 10 min) and stored at -20° C. for HPLC-MS analysis. After protein-precipitation procedure with acetonitrile, supernatants were collected after 3000 rpm, 10 min for analysis with HPLC-MS. The data were analyzed with software DAS2.0 to separately acquire the parameters of compartment models and non-compartment models. The bioavailability was calculated according to AUC data.

[9] = Ba/F3 expressing BCR/ABL T315I, 72 h, Table 1, read-out: IC50 on tumor cell proliferation, BAF3-T315I cells
[10] = read-out: IC50 on tumor cell proliferation, BAF3-T315I cells, Ba/F3 expressing BCR/ABL T315I, 72 h, Table 1

| IC50 ([1]; MTT or CCK8, nM) | IC50 ([4]; imatinib-resistant K562R) | GI50 [5, 9] | IC50 [1] | IC50 [2] | IC50 [3] | IC50 ([6]; U-937, 72 h) | IC50 [4] | GI50 [5, 10] | IC50 ([2]; MTT or CCK8, nM) | IC50 ([3]; MTT or CCK8, nM) | IC50 ([6]; U-937, 72 h, MTT or CCK8, nM) | SMILES | also measured |
| --- | --- | --- | --- | --- | --- | --- | --- | --- | --- | --- | --- | --- | --- |
| 2.09 nM | 0.0727 µM | 0.0497 µM |  |  |  |  |  |  |  |  |  | Cc1ccc(C(=O)Nc2cc(-n3ccnc3)cc(C(F)(F)F)c2)cc1C#Cc1cnc(NC2CC2)nc1 [D729, N-(3-(1H-imidazol-1-yl)-5-(trifluoromethyl)phenyl)-3-(2-(2-(cyclopropylamino)pyrimidin-5-yl)ethynyl)-4-methylbenzamide] | IC50 ([2]; MTT or CCK8, no unit in cell): 5750 nM; IC50 ([3]; MTT or CCK8, no unit in cell): 6580 nM; GI50 ([5]; Ba/F3 carrying T315I Bcr-Abl, STI571-resistant, Table 2, read-out: IC50 on the cell proliferation of Ba/F3 (T315I)): < 0.1 µM |
|  |  |  | > 100 nM | > 10 nM | > 100 nM | > 100 nM | 3.37 µM | 13 µM |  |  |  | Cc1cn(-c2cc(NC(=O)c3ccc(C)c(C#Cc4cnc(N5CCCCC5)nc4)c3)cc(C(F)(F)F)c2)cn1 [D797, 4-methyl-N-(3-(4-methyl-1H-imidazol-1-yl)-5-(trifluoromethyl)phenyl)-3-(2-(2-(piperidin-1-yl)pyrimidin-5-yl)ethynyl)benzamide] |  |
| 34 nM | 1.22 µM | 1.86 µM |  |  |  |  |  |  | > 10 nM | > 100 nM | > 100 nM | Cc1cn(-c2cc(NC(=O)c3ccc(C)c(C#Cc4cnc5ncnn5c4)c3)cc(C(F)(F)F)c2)cn1 [D798, 3-(2-([1,2,4]-triazolo[1,5-a]pyrimidin-6-yl)ethynyl)-4-methyl-N-(3-(4-methyl-1H-imidazol-1-yl)-5-(trifluoromethyl)phenyl)benzamide] |  |
| 36.2 nM | 0.612 µM | > 10 µM |  |  |  |  |  |  | > 100 nM | > 100 nM | > 100 nM | Cc1cn(-c2cc(NC(=O)c3ccc(C)c(C#Cc4cnc5nccn5c4)c3)cc(C(F)(F)F)c2)cn1 [D799, 3-(2-(imidazo[1,2-a]pyrimidin-6-yl)ethynyl)-4-methyl-N-(3-(4-methyl-1H-imidazol-1-yl)-5-(trifluoromethyl)phenyl)benzamide] |  |
|  |  |  |  |  |  |  |  |  |  |  |  | CNc1ncc(C#Cc2cc(C(=O)Nc3cc(-n4cnc(C)c4)cc(C(F)(F)F)c3)ccc2C)cn1 [D800 mesylate, 4-methyl-N-(3-(4-methyl-1H-imidazol-1-yl)-5-(trifluoromethyl)phenyl)-3-(2-(2-(methylamino)pyrimidin-5-yl)ethynyl)benzamide] | effect on tumor growth ([7]; 25 mg/kg po qd): completely inhibit the tumor growth; effect on body weight ([7]; po, qd): did not cause the body weight loss |
|  |  |  | 1.1 nM | > 100 nM | > 100 nM | > 100 nM | 0.0897 µM | 0.0998 µM |  |  |  | CNc1ncc(C#Cc2cc(C(=O)Nc3cc(-n4cnc(C)c4)cc(C(F)(F)F)c3)ccc2C)cn1 [D800, 4-methyl-N-(3-(4-methyl-1H-imidazol-1-yl)-5-(trifluoromethyl)phenyl)-3-(2-(2-(methylamino)pyrimidin-5-yl)ethynyl)benzamide] | pharmacokinetics parameters, overall judgement [8]: adequate pharmacokinetics parameters |
|  |  |  | 1.52 nM | 132 nM | > 100 nM | 147 nM | 0.0633 µM | 0.124 µM and 0.0858 µM |  |  |  | Cc1cn(-c2cc(NC(=O)c3ccc(C)c(C#Cc4cnc(N)nc4)c3)cc(C(F)(F)F)c2)cn1 [D803, 3-(2-(2-aminopyrimidin-5-yl)ethynyl)-4-methyl-N-(3-(4-methyl-1H-imidazol-1-yl)-5-(trifluoromethyl)phenyl)benzamide] |  |
|  |  |  | > 100 nM | > 100 nM | 131 nM | 147 nM |  | 1.89 µM |  |  |  | Cc1cn(-c2cc(NC(=O)c3ccc(C)c(C#Cc4cnc(NC(C)(C)C)nc4)c3)cc(C(F)(F)F)c2)cn1 [D806, 3-(2-(2-(tert-butylamino)pyrimidin-5-yl)ethynyl)-4-methyl-N-(3-(4-methyl-1H-imidazol-1-yl)-5-(trifluoromethyl)phenyl)benzamide] |  |
| 128 nM | 14.1 µM | 13.4 µM |  |  |  |  |  |  | > 100 nM | > 100 nM | 126 nM | CCN(CC)c1ncc(C#Cc2cc(C(=O)Nc3cc(-n4cnc(C)c4)cc(C(F)(F)F)c3)ccc2C)cn1 [D807, 3-(2-(2-(diethylamino)pyrimidin-5-yl)ethynyl)-4-methyl-N-(3-(4-methyl-1H-imidazol-1-yl)-5-(trifluoromethyl)phenyl)benzamide] |  |
|  |  |  | > 100 nM | > 100 nM | 115 nM | > 100 nM | 0.177 µM | 0.102 µM and 0.0711 µM |  |  |  | Cc1cn(-c2cc(NC(=O)c3ccc(C)c(C#Cc4cnc(Nc5ccccc5)nc4)c3)cc(C(F)(F)F)c2)cn1 [D809, 4-methyl-N-(3-(4-methyl-1H-imidazol-1-yl)-5-(trifluoromethyl)phenyl)-3-(2-(2-(phenylamino)pyrimidin-5-yl)ethynyl)benzamide] |  |
| 1.38 nM | 0.142 µM | 0.394 µM |  |  |  |  |  |  | > 100 nM | 210 nM | > 100 nM | Cc1ncn(-c2cc(NC(=O)c3ccc(C)c(C#Cc4cnc5ccnn5c4)c3)cc(C(F)(F)F)c2)n1 [D818, 4-methyl-N-(3-(3-methyl-1H-1,2,4-triazol-1-yl)-5-(trifluoromethyl)phenyl)-3-(2-(pyrazolo[1,5-a]pyrimidin-6-yl)ethynyl)benzamide] |  |
| 1.5 nM | 0.146 µM | 3.12 µM |  |  |  |  |  |  | 146 nM | 122 nM | 2210 nM | Cc1ccc(C(=O)Nc2cc(-n3ccnc3)cc(C(F)(F)F)c2)cc1C#Cc1cnc2ccnn2c1 [D819, N-(3-(1H-imidazol-1-yl)-5-(trifluoromethyl)phenyl)-4-methyl-3-(2-(pyrazolo[1,5-a]pyrimidin-6-yl)ethynyl)benzamide] |  |
|  |  |  | 1.37 nM | 134 nM | > 100 nM | > 100 nM | 0.0352 µM | 0.276 µM |  |  |  | Cc1cn(-c2cc(NC(=O)c3ccc(C)c(C#Cc4cnc(NCCO)nc4)c3)cc(C(F)(F)F)c2)cn1 [D820, 3-(2-(2-(2-hydroxyethylamino)pyrimidin-5-yl)ethynyl)-4-methyl-N-(3-(4-methyl-1H-imidazol-1-yl)-5-(trifluoromethyl)phenyl)benzamide] |  |
|  | 0.067 µM | 0.0108 µM |  |  |  |  |  |  |  |  |  | Cc1ccc(C(=O)Nc2ccc(CN3CCN(C)CC3)c(C(F)(F)F)c2)cc1C#Cc1cnc2ccnn2c1 [D856, 4-methyl-N-(4-((4-methylpiperazin-1-yl)methyl)-3-(trifluoromethyl)phenyl)-3-(2-(pyrazolo[1,5-a]pyrimidin-6-yl)ethynyl)benzamide] | pharmacokinetics parameters, overall judgement [8]: adequate pharmacokinetics parameters; IC50 ([1]; MTT or CCK8, no unit in cell): 2.24 nM; IC50 ([2]; MTT or CCK8, no unit in cell): 499 nM; IC50 ([6]; U-937, 72 h, MTT or CCK8, no unit in cell): 2000 nM |
